Test results from PubChem BioAssay AID2060615 (Molecular Pharmacology Branch, DTP, NCI, 2025).
“And” between values parts separate entries of the source, which are not always exact repeats. Identical values can stand only once.

Tested on: 496974-208-R-J2-PDC complex spheroids, growth % test/control
Assay: Anticancer human tumor 496974-208-R-J2-PDC patient-derived pancreatic carcinoma cell line growth inhibition [CLK]
Conditions: for viability, T/C: stronger effect = lower value
Method in brief: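 Patient-derived tumor cells grown as complex spheroids with HUVEC endothelial cells and mesenchymal stem cells, treated with drug combinations. Concentrations descend in half-log steps from near clinical Cmax, or from 10 microM if Cmax unknown.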
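Further: spheroids exposed to the drugs for 7 days before readout.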
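Wherever viability, T/C is given: 100% = DMSO vehicle control wells.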

O=C(c1cc(Cc2n[nH]c(=O)c3ccccc23)ccc1F)N1CCN(C(=O)C2CC2)CC1 + CN1CCN(c2cc(C(=O)Nc3cc4cc(-c5cnn(C)c5)ccc4cn3)ccn2)CC1
IC50 (curve of first compound, second compound 0.0316 µM): > 10 µM | IC50 (curve of first compound, second compound 0.1 µM): > 10 µM | IC50 (curve of first compound, second compound 0.316 µM): < 0.0316 µM | IC50 (curve of first compound, second compound 1 µM): < 0.0316 µM | IC50 (curve of first compound, second compound 3.16 µM): < 0.0316 µM | IC50 (curve of first compound, second compound 10 µM): < 0.0316 µM | viability, T/C (second compound 0.0316 µM, first compound 0.0316 µM): 98.7% | viability, T/C (second compound 0.0316 µM, first compound 0.1 µM): 96% | viability, T/C (second compound 0.0316 µM, first compound 0.316 µM): 87.4% | viability, T/C (second compound 0.0316 µM, first compound 1 µM): 97.7% | viability, T/C (second compound 0.0316 µM, first compound 3.16 µM): 88.3% | viability, T/C (second compound 0.0316 µM, first compound 10 µM): 88.2% | viability, T/C (second compound 0.1 µM, first compound 0.0316 µM): 82.7% | viability, T/C (second compound 0.1 µM, first compound 0.1 µM): 76% | viability, T/C (second compound 0.1 µM, first compound 0.316 µM): 80.2% | viability, T/C (second compound 0.1 µM, first compound 1 µM): 79.4% | viability, T/C (second compound 0.1 µM, first compound 3.16 µM): 83.2% | viability, T/C (second compound 0.1 µM, first compound 10 µM): 64.7% | viability, T/C (second compound 0.316 µM, first compound 0.0316 µM): 5.96% | viability, T/C (second compound 0.316 µM, first compound 0.1 µM): 5.32% | viability, T/C (second compound 0.316 µM, first compound 0.316 µM): 5.38% | viability, T/C (second compound 0.316 µM, first compound 1 µM): 6.21% | viability, T/C (second compound 0.316 µM, first compound 3.16 µM): 5.51% | viability, T/C (second compound 0.316 µM, first compound 10 µM): 6.01% | viability, T/C (second compound 1 µM, first compound 0.0316 µM): 0.53% | viability, T/C (second compound 1 µM, first compound 0.1 µM): 0.75% | viability, T/C (second compound 1 µM, first compound 0.316 µM): 1.95% | viability, T/C (second compound 1 µM, first compound 1 µM): 0.47% | viability, T/C (second compound 1 µM, first compound 3.16 µM): 1.71% | viability, T/C (second compound 1 µM, first compound 10 µM): 1.78% | viability, T/C (second compound 3.16 µM, first compound 0.0316 µM): 0.81% | viability, T/C (second compound 3.16 µM, first compound 0.1 µM): 0.43% | viability, T/C (second compound 3.16 µM, first compound 0.316 µM): 0.55% | viability, T/C (second compound 3.16 µM, first compound 1 µM): 0.48% | viability, T/C (second compound 3.16 µM, first compound 3.16 µM): 0.71% | viability, T/C (second compound 3.16 µM, first compound 10 µM): 4% | viability, T/C (second compound 10 µM, first compound 0.0316 µM): 0.41% | viability, T/C (second compound 10 µM, first compound 0.1 µM): 0.24% | viability, T/C (second compound 10 µM, first compound 0.316 µM): 0.82% | viability, T/C (second compound 10 µM, first compound 1 µM): 0.42% | viability, T/C (second compound 10 µM, first compound 3.16 µM): 2.08% | viability, T/C (second compound 10 µM, first compound 10 µM): 2.09%

COC1C=CCC(C)C(C)S(=O)(=O)NC(=O)c2ccc3c(c2)N(CC2CCC21)CC1(CCCc2cc(Cl)ccc21)CO3 (stereo unspecified)
viability, T/C (compound 0.0316 µM): 99.2% and 100% | viability, T/C (compound 0.1 µM): 95.3% and 65.2% | viability, T/C (compound 0.316 µM): 89.4% and 82.5% | viability, T/C (compound 1 µM): 75.1% and 74.3% | viability, T/C (compound 3.16 µM): 60.6% and 58.6% | viability, T/C (compound 10 µM): 43.4% and 26% | IC50 (curve of compound): 6.38 µM and 4.15 µM

COc1ccc([C@@H](O)c2cc(-c3ncnc4cc(N5CCOCC5)ccc34)c(F)cc2Cl)nn1
viability, T/C (compound 0.0316 µM): 104% | viability, T/C (compound 0.1 µM): 91.3% and 92.1% | viability, T/C (compound 0.316 µM): 87% and 103% | viability, T/C (compound 1 µM): 77.4% and 80.6% | viability, T/C (compound 3.16 µM): 64.5% and 71.6% | viability, T/C (compound 10 µM): 31.2% and 40.8% | IC50 (curve of compound): 4.92 µM and 7.03 µM
